Test results as given in ChEMBL document CHEMBL5136997, “Sulfur-Containing Phenolic Compounds from the Cave Soil-Derived Aspergillus fumigatus GZWMJZ-152” (J Nat Prod, 2022).

Assays:
Format in all cases: functional
[1] = Antioxidant activity assessed as DPPH radical scavenging activity incubated for 30 mins
[2] = Antioxidant activity assessed as AAPH radical scavenging activity at 12.5 uM ORAC assay
PC-12 = assay: Cytoprotective activity against H2O2-induced oxidative injury in rat PC-12 cells assessed as cell viability at 10 uM incubated for 24 hrs (reference value: 46.91 +/- 3.74%); conditions: for viability at 10 µM: read-out: Activity

Compound	IC50 [1] [µM]	Activity (umolequiv/umol) [2]	viability at 10 µM (PC-12) [%]	Activity (PC-12) [%]
COC(=O)c1c2c(cc(OC)c1C(=O)c1c(O)cc(C)cc1OC)O[C@@H](OC)CS2	> 100	0.08	–	–
COC(=O)c1c(SC[C@H]2NC(=O)CNC2=O)c(O)cc(OC)c1C(=O)c1c(O)cc(C)cc1OC	> 100	0.78	54.2	–
COC(=O)c1cc(O)cc(OC)c1C(=O)c1c(O)cc(C)cc1OC	> 100	1.55	51.7	–
COC(=O)c1c2c(cc(OC)c1C(=O)c1c(O)cc(C)cc1OC)O[C@H](OC)CS2	> 100	0.02	–	–
COC(=O)CSc1c(O)cc(OC)c(C(=O)c2c(O)cc(C)cc2OC)c1C(=O)OC	> 100	1.65	49.1	–
VITAMIN E	–	–	–	57.7
COC(=O)c1c(C(=O)c2c(O)cc(C)cc2OC)c(OC)cc(O)c1[S@+](C)[O-]	> 100	1.59	–	–

Continued, in another order:

IC50 [1] [µM]	Compound	Activity (umolequiv/umol) [2]	viability at 10 µM (PC-12) [%]	Activity (PC-12) [%]
> 100	COC(=O)c1c(C(=O)c2c(O)cc(C)cc2OC)c(OC)cc(O)c1[S@@+](C)[O-]	1.76	–	–
> 100	COC(=O)c1c2c(cc(OC)c1C(=O)c1c(O)cc(C)cc1OC)OC(OC)CS2 (racemic)	0.03	63.2	–
11.9	O=C1O[C@H]([C@@H](O)CO)C(O)=C1O [ASCORBIC ACID]	–	–	–
> 100	COC(=O)c1c(C(=O)c2c(O)cc(C)cc2OC)c(OC)cc(O)c1[S+](C)[O-] (racemic)	1.73	62.4	–
3.45	COc1c(O)c(O)c(C)c2scnc12	0.73	47.9	–
23.7	COc1c(O)c(O)c(C)c2sc(CO)nc12	0.66	43.2	–
17.3	COC1=CC(=O)C(C)=C(O)C1=O	0.67	50	–
